Target: T1, KDM4A (Homo sapiens, UniProt O75164)
T1 sequence (O75164 2-1064): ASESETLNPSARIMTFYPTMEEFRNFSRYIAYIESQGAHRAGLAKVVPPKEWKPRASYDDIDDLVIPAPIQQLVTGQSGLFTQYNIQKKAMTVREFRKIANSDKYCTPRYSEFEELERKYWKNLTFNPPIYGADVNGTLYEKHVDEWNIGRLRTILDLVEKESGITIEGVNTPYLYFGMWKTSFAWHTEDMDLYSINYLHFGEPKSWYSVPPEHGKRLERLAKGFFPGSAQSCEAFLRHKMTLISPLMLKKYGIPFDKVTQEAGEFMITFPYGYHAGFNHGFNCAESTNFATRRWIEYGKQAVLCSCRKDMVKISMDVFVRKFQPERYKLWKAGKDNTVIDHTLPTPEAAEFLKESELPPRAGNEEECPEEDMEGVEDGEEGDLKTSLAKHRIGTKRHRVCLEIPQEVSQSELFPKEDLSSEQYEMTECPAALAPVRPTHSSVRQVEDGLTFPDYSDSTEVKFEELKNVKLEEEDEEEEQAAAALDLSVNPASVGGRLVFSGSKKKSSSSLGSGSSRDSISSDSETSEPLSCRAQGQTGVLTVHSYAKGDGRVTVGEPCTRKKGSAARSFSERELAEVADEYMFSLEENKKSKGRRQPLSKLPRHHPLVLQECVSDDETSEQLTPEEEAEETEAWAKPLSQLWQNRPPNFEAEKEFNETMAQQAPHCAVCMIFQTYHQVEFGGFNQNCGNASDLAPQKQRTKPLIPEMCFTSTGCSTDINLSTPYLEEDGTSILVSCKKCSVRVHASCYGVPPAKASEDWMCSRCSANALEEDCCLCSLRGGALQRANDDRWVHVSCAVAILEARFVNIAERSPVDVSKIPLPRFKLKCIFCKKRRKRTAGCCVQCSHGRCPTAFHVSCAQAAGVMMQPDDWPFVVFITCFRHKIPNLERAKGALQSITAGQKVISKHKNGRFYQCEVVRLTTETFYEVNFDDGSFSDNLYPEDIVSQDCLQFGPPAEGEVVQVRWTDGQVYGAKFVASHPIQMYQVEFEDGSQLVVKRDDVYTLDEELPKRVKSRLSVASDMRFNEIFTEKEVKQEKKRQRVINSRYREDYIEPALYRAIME
Assay: FDH-coupled demethylase assay, recombinant KDM4A with H3K9me3 peptide (Cayman kit […])
Type: biochemical

SMILES: CC(C)(C)OC(=O)NCc1cc2ccccc2[te]1 [1c, tert-Butyl benzo[b]tellurophen-2-ylmethylcarbamate]
- IC50: 30.2 ± 4.6 µM

Source: paper PMC6928947, “Benzo[b]tellurophenes as a Potential Histone H3 Lysine 9 Demethylase (KDM4) Inhibitor” (International Journal of Molecular Sciences, 2019)
